Results on two compounds are retold here after patent US12617818B2, “Compositions and methods for modulating myosin subfragment-2 coiled coil stability and methods for using them” (UNIVERSITY OF NORTH TEXAS, priority 2020, dated 2026).

Test [1] has as its target T1, cardiac muscle myosin S2 peptide E930del (MYH7 E930del) (Homo sapiens, UniProt P12883, DEL931-931).
T1 construct: host or cells: chemical synthesis
T1 sequence (P12883 with tags, fused parts or gaps DEL931-931): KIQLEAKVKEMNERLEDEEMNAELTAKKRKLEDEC
Nature of the test: GFS, uncoiling of E930del cardiac myosin S2 peptide dimer. The class given is biochemical. As to conditions: length 10 nm; in presence of stabilizer; ± SEM. The text has this:
3-aminopropyltriethoxysilane, acetone, coupling buffer (0.01 M pyridine in water with pH 6.0), 5% glutaraldehyde, quenching solution (1 M glycine in water with pH 7.0), blocking buffer (0.01 M Tris, 0.1% sodium azide, 0.1% bovine serum albumin, 0.15 M sodium chloride, and 0.001 M ethylenediaminetetraacetic acid with pH 7.0), wash buffer (0.01 M Tris, 0.1% sodium azide, 0.15 M sodium chloride, and 0.001 M ethylenediaminetetraacetic acid with pH 7.0) low salt buffer (0.1 M potassium chloride, 0.02 M imidazole, 5 mM magnesium chloride, with pH 7.0), 1-ethyl-3-(3-dimethyaminopropyl) carbodiimide, N-hydroxysuccinamide, iodoacetamide-succinimidyl ester, 8M urea solution (50 mM imidazole and 0.1 mM tris (2-carboxyethyl) phosphine with pH 7.0) monodisperse silica beads, glass slides, glass coverslips, vacuum grease, rabbit skeletal myosin, purified actin (G-actin), 1 μM human β-cardiac myosin S2 peptide, 1 μM human β-cardiac mutants myosin S2 peptide (E930del and E924K), 1 μM human skeletal myosin S2 peptide, 1 μM human smooth myosin S2 peptide, stabilizer peptide, and destabilizer peptide. A light microscope with an objective lens of 10× was mounted on an alt-azimuthal mount. A digital video camera of Sony, XCD-V60 was replaced with the ocular lenses. Extension springs on steel bracket held the alt-azimuthal mount suspended.
Gravitational force spectroscopy (GFS), is a single molecule force spectroscopy that utilizes gravitational force to measure absolute length of a single molecule at the given force calculated by the density of the bead suspending the molecule. This technique was discovered and developed in Root lab, which measures the forces in piconewton and sub-piconewton levels. Other than absolute length of a molecule, GFS measures force range required to uncoil, stretch or extend the molecule yielding a force-distance profile for the suspended molecule. Besides that, based on the force-distance profile, number of amino acids within the molecule can be calculated. […] The GFS allowed to test the flexibility or stability of a single molecule of myosin S2 peptide and also for the S2 peptides treated with anti-S2 peptides. Flexibility of myosin S2 is not dependent on assembly myosin as a thick filament or myosin in its single molecule form. […]
Free fall mode, another measurement variant of GFS which allows the user to get a force distance profile on a single molecule experiencing the gravitational force. […] During the free fall mode, GFS has a single molecule which is suspended within an immobile edge and mobile bead will now experience the variable force which would be calculated by the product of mass of the bead and the acceleration of the GFS. […]

Test [2] relates to human cardiac myosin S2 peptide. Nature of the test: Competitive ELISA (cELISA) against polyclonal anti-S2 antibody. As to conditions: low-high-low OD trend. It counts as binding. On the procedure: Phosphate buffer saline (PBS) contained 0.14 M sodium chloride, 2.7 mM potassium chloride, 1.5 mM potassium phosphate monobasic, and 8.1 mM sodium phosphate dibasic with pH 7.4. Detergent buffer was made with 0.05% triton X-100 in PBS, blocking buffer was made with 3% powdered milk in detergent buffer. Assay buffer contained 100 mM potassium phosphate dibasic, 100 mM potassium phosphate monobasic, 1 M potassium chloride and 10 mM magnesium chloride with pH 7.0. Stocks of primary antibody (polyclonal antibody anti-S2), rabbit skeletal myosin, human cardiac myosin S2 peptide, stabilizer and destabilizer peptide. Secondary antibody conjugated with alkaline phosphatase was anti-guinea pig immunoglobulin G (IgG)-alkaline phosphatase (Sigma-Aldrich, catalog number A5062) produced in goat and isolated by affinity chromatography. Substrate was 5-Bromo-4-chloro-3-indolyl phosphate (BCIP) tablets dissolved in 10 ml of distilled water per tablet and 96 well microtiter plate.
Competitive Enzyme Linked Immunosorbent Assay (cELISA) is a classical immunochemical test to validate the binding efficiency and specificity in lower molar concentrations (Yorde et al., 1976; Voller et al., 1978; Walker, J. M. 1996). In this assay the polyclonal antibody anti-S2 raised against single alpha helix of myosin S2 would be used to compete with stabilizer or destabilizer peptide to bind myosin S2 in rabbit skeletal myosin molecule as well as small human cardiac myosin S2 peptide. This cELISA, thus have two molecules polyclonal anti-S2 and stabilizer peptide which have two binding sites one on rabbit skeletal myosin and the other one being on small human cardiac myosin S2. Since both polyclonal anti-S2 and stabilizer peptide were designed against human β-cardiac myosin S2 they both would have a stronger affinity towards the smaller human β-cardiac myosin S2 peptide against the myosin S2 on rabbit skeletal myosin.
To test the binding specificity and efficiency of stabilizer or destabilizer peptide the following setup was used. Start of the setup would be to coat the wells with rabbit skeletal myosin molecule and add appropriate amount human cardiac myosin S2 peptide that would bind the primary polyclonal anti-S2 antibody and when washed there won't be enough primary polyclonal anti-S2 antibody to bind myosin S2 of rabbit skeletal myosin adsorbed on the wells. When alkaline phosphatase conjugated secondary antibody is added on to the wells, it won't have enough or none primary polyclonal anti-S2 antibody to bind. After addition of color developing BCIP substrate to the wells it would lead to low or no color development leading to lower optical density (OD). […]
(In an ELISA, binding on a coated surface is turned into a signal by an enzyme label.)

With `C[C@H](NC(=O)[C@H](CCCCN)NC(=O)[C@H](Cc1ccccc1)NC(=O)[C@H](CCCCN)NC(=O)[C@H](CCCCN)NC(=O)[C@H](CCCCN)NC(=O)[C@H](CCCCN)NC(=O)[C@H](CCCCN)NC(=O)[C@H](CCCCN)NC(=O)[C@H](CCCCN)NC(=O)[C@@H](N)CCCCN)C(=O)N[C@@H](CCCCN)C(=O)N[C@@H](CCCCN)C(=O)N[C@@H](CCCCN)C(=O)N[C@@H](CCCCN)C(=O)N[C@@H](CCCCN)C(=O)N[C@@H](CCCCN)C(=O)O` [Stabilizer], the “Force required to uncoil S2 molecule” value in test [1] is reported as 1.07E+00 ± 8.28E−02 pN.

In the case of `CSCC[C@H](NC(=O)[C@H](CCC(=O)O)NC(=O)[C@H](CCCNC(=N)N)NC(=O)[C@H](CCC(=O)O)NC(=O)[C@H](CC(=O)O)NC(=O)[C@H](CCC(=O)O)NC(=O)[C@H](CC(C)C)NC(=O)[C@H](CCCNC(=N)N)NC(=O)[C@H](CCC(=O)O)NC(=O)[C@H](CC(N)=O)NC(=O)[C@H](CCSC)NC(=O)[C@@H](N)CCC(=O)O)C(=O)N[C@@H](CCCCN)C(=O)N[C@@H](C)C(=O)N[C@@H](CCC(=O)O)C(=O)N[C@@H](CC(C)C)C(=O)N[C@H](C(=O)N[C@@H](C)C(=O)N[C@@H](CCCCN)C(=O)O)[C@@H](C)O` [Destabilizer], the “cross specificity to human cardiac myosin S2 and rabbit skeletal myosin S2” value in test [2] is listed as “cross specific”.
